The target in this experiment is T1, human GABA A receptor α5β3γ2 (Homo sapiens, UniProt P18507+P31644).
T1 construct: expressed in transfected cells; host or cells: HEK293 (transiently transfected), membrane preparation
Put plainly: [3H]flumazenil competition binding assay, human GABA A α5 receptor. The conditions noted are these: human α5β3γ2 receptors transiently transfected in HEK293 cells; displacement of [3H]flumazenil 0.5 nM; 1 hour at 4° C.; means of two determinations; read-out: hKi GABA A α5. The protocol:
Membrane Preparation and Binding Assay
The affinity of compounds at GABA A receptor subtypes was measured by competition for [3H]flumazenil (85 Ci/mmol; Roche) binding to HEK293 cells expressing rat (stably transfected) or human (transiently transfected) receptors of composition α1β3γ2, α2β3γ2, α3β3γ2 and α5β3γ2.
Cell pellets were suspended in Krebs-tris buffer (4.8 mM KCl, 1.2 mM CaCl2, 1.2 mM MgCl2, 120 mM NaCl, 15 mM Tris; pH 7.5; binding assay buffer), homogenized by polytron for ca. 20 sec on ice and centrifuged for 60 min at 4° C. (50000 g; Sorvall, rotor: SM24=20000 rpm). The cell pellets were re-suspended in Krebs-tris buffer and homogenized by polytron for ca. 15 sec on ice. Protein was measured (Bradford method, Bio-Rad) and aliquots of 1 mL were prepared and stored at −80° C.
Radioligand binding assays were carried out in a volume of […] (96-well plates) which contained […] of cell membranes, [^3H]flumazenil at a concentration of 1 nM for α1, α2 and α3 subunits and 0.5 nM for α5 subunits and the test compound in the range of […]. Nonspecific binding was defined by 10^−5 M diazepam and typically represented less than 5% of the total binding. Assays were incubated to equilibrium for 1 hour at 4° C. and harvested onto GF/C uni-filters (Packard) by filtration using a Packard harvester and washing with ice-cold wash buffer (50 mM Tris; pH 7.5). After drying, filter-retained radioactivity was detected by liquid scintillation counting. Ki values were calculated using Excel-Fit (Microsoft) and are the means of two determinations.
Background: Displacement assays read how much labelled ligand stays bound in the presence of the test substance.
With `CCCCc1noc(C)c1COc1cc(C(=O)NC(C)C)on1` [Example 28, 3-(3-Butyl-5-methyl-isoxazol-4-ylmethoxy)-isoxazole-5-carboxylic acid isopropylamide], the Ki amounted to 24.6 nM. The value for `Cc1onc(-c2ccccn2)c1COc1cc(C(=O)NC(C)C)sn1` [Example 36, 3-(5-Methyl-3-pyridin-2-yl-isoxazol-4-ylmethoxy)-isothiazole-5-carboxylic acid isopropyl-amide] was 15 nM; that for `CCCCc1noc(C)c1COc1cc(C(=O)NC2CCOC2)on1` (single isomer, unassigned) [Example 30, (R or S)-3-(3-Butyl-5-methyl-isoxazol-4-ylmethoxy)-isoxazole-5-carboxylic acid (tetrahydro-furan-3-yl)-amide] was 6.5 nM.

On to `Cc1onc(-c2ccccc2)c1COc1cc(C(=O)NN2CCCCC2)on1` [Example 11, 3-(5-Methyl-3-phenyl-isoxazol-4-ylmethoxy)-isoxazole-5-carboxylic acid piperidin-1-yl-amide], for which the Ki is 13.8 nM. Regarding `Cc1onc(-c2ccccn2)c1COc1cc(C(=O)NCCO)sn1` [Example 37, 3-(5-Methyl-3-pyridin-2-yl-isoxazol-4-ylmethoxy)-isothiazole-5-carboxylic acid (2-hydroxy-ethyl)-amide], the Ki stood at 17.6 nM. With `CCCCc1noc(C)c1/C=C/c1cc(C(=O)NCCO)on1` [Example 1, 3-[(E)-2-(3-Butyl-5-methyl-isoxazol-4-yl)-vinyl]-isoxazole-5-carboxylic acid (2-hydroxy-ethyl)-amide] the figure was 28.6 nM; with `CCCCc1noc(C)c1COc1cc(C(=O)NC(C)CO)on1` (centres unmarked) [Example 25, 3-(3-Butyl-5-methyl-isoxazol-4-ylmethoxy)-isoxazole-5-carboxylic acid (2-hydroxy-1-methyl-ethyl)-amide], 27.7 nM. With `Cc1onc(-c2ccccc2)c1COc1cc(C(=O)NN(C)C)on1` [Example 10, 3-(5-Methyl-3-phenyl-isoxazol-4-ylmethoxy)-isoxazole-5-carboxylic acid N′,N′-dimethyl-hydrazide] the figure was 22.2 nM; with `Cc1onc(-c2ccc(F)cn2)c1COc1cc(C(=O)NC(C)C)on1` [Example 22, 3-[3-(5-Fluoro-pyridin-2-yl)-5-methyl-isoxazol-4-ylmethoxy]-isoxazole-5-carboxylic acid isopropylamide], 1.7 nM. For the compound `Cc1onc(-c2ccccc2)c1COc1cc(C(=O)NC2CCOC2)on1` (centres unmarked) [Example 4, 3-(5-Methyl-3-phenyl-isoxazol-4-ylmethoxy)-isoxazole-5-carboxylic acid (tetrahydro-furan-3-yl)-amide], the Ki amounted to 4.4 nM. The value for `CCCCc1noc(C)c1COc1cc(C(=O)N[C@H](C)CO)on1` [Example 27, 3-(3-Butyl-5-methyl-isoxazol-4-ylmethoxy)-isoxazole-5-carboxylic acid ((R)-2-hydroxy-1-methyl-ethyl)-amide] was 38 nM; that for `Cc1onc(-c2ccccc2)c1COc1cc(C(=O)NC(C)C)on1` [Example 3, 3-(5-Methyl-3-phenyl-isoxazol-4-ylmethoxy)-isoxazole-5-carboxylic acid isopropylamide] was 7.5 nM. The value for `Cc1onc(-c2ccccn2)c1COc1cc(C(=O)NN2CCOCC2)on1` [Example 19, 3-(5-Methyl-3-pyridin-2-yl-isoxazol-4-ylmethoxy)-isoxazole-5-carboxylic acid morpholin-4-ylamide] was 2 nM. With `O=C(NCC(F)(F)F)c1cc(OCc2c(-c3ccc(F)cc3)noc2CO)no1` [Example 45, 3-[3-(4-Fluoro-phenyl)-5-hydroxymethyl-isoxazol-4-ylmethoxy]-isoxazole-5-carboxylic acid (2,2,2-trifluoro-ethyl)-amide] the figure was 10 nM; with `CC(C)NC(=O)c1cc(OCc2c(-c3ccc(F)cc3)noc2CO)no1` [Example 43, 3-[3-(4-Fluoro-phenyl)-5-hydroxymethyl-isoxazol-4-ylmethoxy]-isoxazole-5-carboxylic acid isopropylamide], 8.8 nM. As to `CCCCc1noc(C)c1COc1cc(C(=O)NN2CCOCC2)on1` [Example 33, 3-(3-Butyl-5-methyl-isoxazol-4-ylmethoxy)-isoxazole-5-carboxylic acid morpholin-4-ylamide], the Ki turned out to be 10.4 nM. The value for `CCCCc1noc(C)c1COc1cc(C(=O)NC2CCOC2)on1` (centres unmarked) [Example 29, 3-(3-Butyl-5-methyl-isoxazol-4-ylmethoxy)-isoxazole-5-carboxylic acid (tetrahydro-furan-3-yl)-amide] was 8.5 nM; that for `Cc1onc(-c2ccc(F)cn2)c1COc1cc(C(=O)NCCO)on1` [Example 23, 3-[3-(5-Fluoro-pyridin-2-yl)-5-methyl-isoxazol-4-ylmethoxy]-isoxazole-5-carboxylic acid (2-hydroxy-ethyl)-amide] was 2.2 nM. With `Cc1onc(-c2ccccn2)c1COc1cc(C(=O)NN(C)C)on1` [Example 18, 3-(5-Methyl-3-pyridin-2-yl-isoxazol-4-ylmethoxy)-isoxazole-5-carboxylic acid N′,N′-dimethyl-hydrazide] the figure was 8.9 nM. Turning to `Cc1onc(-c2ccccc2)c1COc1cc(C(=O)NC(C)C)sn1` [Example 34, 3-(5-Methyl-3-phenyl-isoxazol-4-ylmethoxy)-isothiazole-5-carboxylic acid isopropylamide], the Ki came to 28 nM. The value for `Cc1onc(-c2ccccn2)c1COc1cc(C(=O)NN2CCCC2)on1` [Example 21, 3-(5-Methyl-3-pyridin-2-yl-isoxazol-4-ylmethoxy)-isoxazole-5-carboxylic acid pyrrolidin-1-ylamide] was 7.8 nM; that for `Cc1onc(-c2ccccc2)c1COc1cc(C(=O)NC(C)CO)on1` (single isomer, unassigned) [Example 9, (S or R)-3-(5-Methyl-3-phenyl-isoxazol-4-ylmethoxy)-isoxazole-5-carboxylic acid (2-hydroxy-1-methyl-ethyl)-amide] was 23.1 nM. The value for `Cc1onc(-c2ccccn2)c1COc1cc(C(=O)NCC(F)(F)F)on1` [Example 17, 3-(5-Methyl-3-pyridin-2-yl-isoxazol-4-ylmethoxy)-isoxazole-5-carboxylic acid (2,2,2-trifluoro-ethyl)-amide] was 2.3 nM; that for `Cc1onc(-c2ccccc2)c1COc1cc(C(=O)NC(C)CO)on1` (single isomer, unassigned) [Example 8, (R or S)-3-(5-Methyl-3-phenyl-isoxazol-4-ylmethoxy)-isoxazole-5-carboxylic acid (2-hydroxy-1-methyl-ethyl)-amide] was 13.5 nM. As to `CCCCc1noc(C)c1COc1cc(C(=O)NN(C)C)on1` [Example 32, 3-(3-Butyl-5-methyl-isoxazol-4-ylmethoxy)-isoxazole-5-carboxylic acid N′,N′-dimethyl-hydrazide], the Ki came to 56.8 nM.

On to `Cc1onc(-c2ccccc2)c1COc1cc(C(=O)NC(C)CO)on1` (centres unmarked) [Example 6, 3-(5-Methyl-3-phenyl-isoxazol-4-ylmethoxy)-isoxazole-5-carboxylic acid (2-hydroxy-1-methyl-ethyl)-amide], for which the Ki is 8.8 nM. The value for `Cc1onc(-c2ccc(F)cc2)c1COc1cc(C(=O)N2CC3(COC3)C2)on1` [Example 42, {3-[3-(4-Fluoro-phenyl)-5-methyl-isoxazol-4-ylmethoxy]-isoxazol-5-yl}-(2-oxa-6-aza-spiro[3.3]hept-6-yl)-methanone] was 9.8 nM; that for `Cc1onc(-c2ccccn2)c1COc1cc(C(=O)NC(C)C)on1` [Example 14, 3-(5-Methyl-3-pyridin-2-yl-isoxazol-4-ylmethoxy)-isoxazole-5-carboxylic acid isopropyl-amide] was 2.5 nM; that for `Cc1onc(-c2ccc(F)cn2)c1COc1cc(C(=O)NCCO)sn1` [Example 39, 3-[3-(5-Fluoro-pyridin-2-yl)-5-methyl-isoxazol-4-ylmethoxy]-isothiazole-5-carboxylic acid (2-hydroxy-ethyl)-amide] was 13 nM. The value for `O=C(NC1CCOCC1)c1cc(OCc2c(-c3ccc(F)cc3)noc2CO)no1` [Example 44, 3-[3-(4-Fluoro-phenyl)-5-hydroxymethyl-isoxazol-4-ylmethoxy]-isoxazole-5-carboxylic acid (tetrahydro-pyran-4-yl)-amide] was 2.8 nM; that for `Cc1onc(-c2ccccn2)c1COc1cc(C(=O)NCCO)on1` [Example 15, 3-(5-Methyl-3-pyridin-2-yl-isoxazol-4-ylmethoxy)-isoxazole-5-carboxylic acid (2-hydroxy-ethyl)-amide] was 3 nM. Take `CCCCc1noc(C)c1COc1cc(C(=O)NC2CCOC2)on1` (single isomer, unassigned) [Example 31, (S or R)-3-(3-Butyl-5-methyl-isoxazol-4-ylmethoxy)-isoxazole-5-carboxylic acid (tetrahydro-furan-3-yl)-amide]: the Ki amounted to 2.8 nM.

These data come from US8173652B2, “Isoxazole-isoxazoles and isoxazole-isothiazoles” (Hoffmann-La Roche Inc., priority 2009, dated 2012).
